Molecular target: T1, human M4 muscarinic acetylcholine receptor (Homo sapiens, UniProt P08173)
T1 construct: expressed in transfected cells; host or cells: CHO-K1
T1 sequence (P08173 1-479): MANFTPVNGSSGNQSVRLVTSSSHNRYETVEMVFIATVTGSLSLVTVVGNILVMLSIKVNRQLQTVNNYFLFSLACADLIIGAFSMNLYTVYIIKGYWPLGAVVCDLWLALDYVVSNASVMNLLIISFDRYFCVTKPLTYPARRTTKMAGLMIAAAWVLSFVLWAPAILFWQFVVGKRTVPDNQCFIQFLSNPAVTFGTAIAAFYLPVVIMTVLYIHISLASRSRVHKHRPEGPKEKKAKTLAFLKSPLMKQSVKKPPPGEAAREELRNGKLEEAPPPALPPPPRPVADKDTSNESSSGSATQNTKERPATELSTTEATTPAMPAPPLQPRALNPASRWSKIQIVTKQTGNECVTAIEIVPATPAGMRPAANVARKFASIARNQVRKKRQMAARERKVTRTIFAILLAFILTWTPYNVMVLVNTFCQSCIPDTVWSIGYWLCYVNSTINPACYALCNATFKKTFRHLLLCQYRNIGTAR
Test: human FLIPR-based M4 PAM assay (Ca2+ mobilization, CHO-K1 cells with human M4 receptor and Gαqi5)
Format: cell-based
Details: acetylcholine at 20% of maximum response, read-out: M4 PAM IP
In short: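 Calcium-mobilization (FLIPR) readout in dye-loaded CHO-K1 cells co-expressing human M4 receptor and Gαqi5. Potentiation measured against acetylcholine at a concentration giving 20% of maximal response, with an optional 70% addition; the reported value is the curve inflection point from a 4-parameter logistic fit.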

| Structure (SMILES) | EC50 [nM] |
| --- | --- |
| Cc1cc2c(nc1N1CC[C@@H](Oc3cnc4c(c3)COC4)[C@H](F)C1)CNC2=O [Example 48A, 2-((3R,4R)-4-((5,7-dihydrofuro[3,4-b]pyridin-3-yl)oxy)-3-fluoropiperidin-1-yl)-3-methyl-6,7-dihydro-5H-pyrrolo[3,4-b]pyridin-5-one] | 67 |
| Cc1cc2c(nc1N1CCC(Oc3cnc4c(c3)COC4)CC1)CN(C)C2=O [Example 49, 2-(4-((5,7-dihydrofuro[3,4-b]pyridin-3-yl)oxy)piperidin-1-yl)-3,6-dimethyl-6,7-dihydro-5H-pyrrolo[3,4-b]pyridin-5-one] | 94 |
| Cc1cc2c(nc1N1CCC(Oc3cncc(C#N)c3)CC1)CNC2=O [Example 50, 5-((1-(3-methyl-5-oxo-6,7-dihydro-5H-pyrrolo[3,4-b]pyridin-2-yl)piperidin-4-yl)oxy)nicotinonitrile] | 657 |
| Cc1cc2c(nc1N1CCC(Oc3cnc4c(c3)COCC4)CC1)CNC2=O [Example 52, 2-(4-((7,8-dihydro-5H-pyrano[4,3-b]pyridin-3-yl)oxy)piperidin-1-yl)-3-methyl-6,7-dihydro-5H-pyrrolo[3,4-b]pyridin-5-one] | 238 |
| Cc1cc2c(nc1N1CCC(Oc3cnc4c(c3)COCC4)CC1)CN(C)C2=O [Example 53, 2-(4-((7,8-dihydro-5H-pyrano[4,3-b]pyridin-3-yl)oxy)piperidin-1-yl)-3,6-dimethyl-6,7-dihydro-5H-pyrrolo[3,4-b]pyridin-5-one] | 449 |
| CCOCCOC1CCN(c2nc3c(cc2C)C(=O)NC3)CC1 [Example 54, 2-(4-(2-ethoxyethoxy)piper-idin-1-yl)-3-methyl-6,7-dihydro-5H-pyrrolo[3,4-b]pyridin-5-one] | 8760 |
| CCOC1CCN(c2nc3c(cc2C)C(=O)NC3)CC1 [Example 55, 2-(4-ethoxypiperidin-1-yl)-3-methyl-6,7-dihydro-5H-pyrrolo[3,4-b]pyridin-5-one] | 1120 |
| COCCOC1CCN(c2nc3c(cc2C)C(=O)NC3)CC1 [Example 56, 2-(4-(2-methoxyethoxy)piperidin-1-yl)-3-methyl-6,7-dihydro-5H-pyrrolo[3,4-b]pyridin-5-one] | 11200 |
| COCCOCc1cccc(OC2CCN(c3nc4c(cc3C)C(=O)NC4)CC2)c1 [Example 58, 2-(4-(3-((2-methoxyethoxy)meth-yl)phenoxy)piperi-din-1-yl)-3-methyl-6,7-dihydro-5H-pyrrolo[3,4-b]pyridin-5-one] | 192 |
| Cc1cc2c(nc1N1CCC(Oc3cnc4c(c3)CCC4)CC1)CNC2=O [Example 59, 2-(4-((6,7-dihydro-5H-cyclopenta[b]pyridin-3-yl)oxy)piperidin-1-yl)-3-methyl-6,7-dihydro-5H-pyrrolo[3,4-b]pyridin-5-one] | 123 |
| COCCOc1ccc(O[C@@H]2CCN(c3nc4c(cc3C)C(=O)NC4)C[C@H]2F)cn1 [Example 60, 2-((3R,4R)-3-fluoro-4-((6-(2-methoxyethoxy)pyridin-3-yl)oxy)piperidin-1-yl)-3-methyl-6,7-dihydro-5H-pyrrolo[3,4-b]pyridin-5-one] | 207 |
| Cc1cc2c(nc1N1CCC(OCc3ccccc3)CC1)CNC2=O [Example 63, 2-(4-(benzyloxy)piperidin-1-yl)-3-methyl-6,7-dihydro-5H-pyrrolo[3,4-b]pyridin-5-one] | 145 |
| Cc1cc2c(nc1N1CCC(OCC3(C)CC3(F)F)CC1)CNC2=O (stereo not drawn) [Example 64, 2-(4-((2,2-difluoro-1-methylcyclopropyl)methoxy)piperidin-1-yl)-3-methyl-6,7-dihydro-5H-pyrrolo[3,4-b]pyridin-5-one] | 206 |
| Cc1cc2c(nc1N1CCC(OCC3(F)CC3)CC1)CNC2=O [Example 64A, 2-(4-((1-fluorocyclopropyl)methoxy)piperidin-1-yl)-3-methyl-6,7-dihydro-5H-pyrrolo[3,4-b]pyridin-5-one] | 192 |
| Cc1cc2c(nc1N1CC[C@@H](Oc3cnc4c(c3)COC4)[C@@H](F)C1)CNC2=O [Example 65, 2-((3S,4R)-4-((5,7-dihydrofuro[3,4-b]pyridin-3-yl)oxy)-3-fluoropiperidin-1-yl)-3-methyl-6,7-dihydro-5H-pyrrolo[3,4-b]pyridin-5-one] | 75 |
| Cc1cc2c(nc1N1CCC(OCCC3(C)CC3)CC1)CNC2=O [Example 65A, 3-methyl-2-(4-(2-(1-methylcyclopropyl)ethoxy)piperidin-1-yl)-6,7-dihydro-5H-pyrrolo[3,4-b]pyridin-5-one] | 164 |

The remaining lines, values ahead:

| EC50 [nM] | Structure (SMILES) |
| --- | --- |
| 51 | COc1cccc(OC2CCN(c3nc4c(cc3C)C(=O)NC4)CC2)c1 [Example 51, 2-(4-(3-methoxyphenoxy)piperidin-1-yl)-3-methyl-6,7-dihydro-5H-pyrrolo[3,4-b]pyridin-5-one] |
| 61 | COCc1cccc(OC2CCN(c3nc4c(cc3C)C(=O)NC4)CC2)c1 [Example 57, 2-(4-(3-(methoxymethyl)phenoxy)piperidin-1-yl)-3-methyl-6,7-dihydro-5H-pyrrolo[3,4-b]pyridin-5-one] |
| 55 | Cc1cc2c(nc1N1CCC(Oc3ccc(OC(C)C)nc3)CC1)CNC2=O [Example 62, 2-(4-((6-isopropoxypyridin-3-yl)oxy)piperidin-1-yl)-3-methyl-6,7-dihydro-5H-pyrrolo[3,4-b]pyridin-5-one] |
| 84 | Cc1cncc(OC2CCN(c3nc4c(cc3C)C(=O)NC4)CC2)c1 [Example 66, 3-Methyl-2-(4-((5-methylpyridin-3-yl)oxy)piperidin-1-yl)-6,7-dihydro-5H-pyrrolo[3,4-b]pyridin-5-one] |
| 136 | Cc1cc2c(nc1N1CCC(Oc3ccc4c(c3)C(=O)N(C)C4)CC1)CNC2=O [Example 67, 3-methyl-2-(4-((2-methyl-3-oxoisoindolin-5-yl)oxy)piperidin-1-yl)-6,7-dihydro-5H-pyrrolo[3,4-b]pyridin-5-one] |
| 79 | Cc1cc2c(nc1N1CCC(Oc3cccnc3)CC1)CNC2=O [Example 68, 3-methyl-2-(4-(pyridin-3-yloxy)piperidin-1-yl)-6,7-dihydro-5H-pyrrolo[3,4-b]pyridin-5-one] |
| 88 | Cc1nc2ccc(OC3CCN(c4nc5c(cc4C)C(=O)NC5)CC3)cc2o1 [Example 69, 3-methyl-2-(4-((2-methylbenzo[d]oxazol-6-yl)oxy)piperidin-1-yl)-6,7-dihydro-5H-pyrrolo[3,4-b]pyridin-5-one] |
| 79 | Cc1cc2c(nc1N1CCC(Oc3cnc4[nH]ccc4c3)CC1)CNC2=O [Example 70, 2-(4-((1H-pyrrolo[2,3-b]pyridin-5-yl)oxy)piperidin-1-yl)-3-methyl-6,7-dihydro-5H-pyrrolo[3,4-b]pyridin-5-one] |
| 42 | Cc1cc2c(nc1N1CCC(Oc3cccc(F)c3)CC1)CNC2=O [Example 71] |
| 30 | Cc1cc2c(nc1N1CCC(Oc3ccc(F)cc3)CC1)CNC2=O [Example 72, 2-(4-(4-fluorophenoxy)piperidin-1-yl)-3-methyl-6,7-dihydro-5H-pyrrolo[3,4-b]pyridin-5-one] |
| 2250 | Cc1cc2c(nc1N1CCC(Oc3ccccc3Cl)CC1)CNC2=O [Example 73, 2-(4-(2-chlorophenoxy)piperidin-1-yl)-3-methyl-6,7-dihydro-5H-pyrrolo[3,4-b]pyridin-5-one] |
| 46 | Cc1cc2c(nc1N1CCC(Oc3cccc(Cl)c3)CC1)CNC2=O [Example 74, 2-(4-(3-chlorophenoxy)piperidin-1-yl)-3-methyl-6,7-dihydro-5H-pyrrolo[3,4-b]pyridin-5-one] |
| 236 | Cc1cc2c(nc1N1CCC(Oc3ccccc3F)CC1)CNC2=O [Example 75, 2-(4-(2-fluorophenoxy)piperidin-1-yl)-3-methyl-6,7-dihydro-5H-pyrrolo[3,4-b]pyridin-5-one] |
| 80 | Cc1cc2c(nc1N1CCC(Oc3ccc(Cl)cc3)CC1)CNC2=O [Example 76, 2-(4-(4-chlorophenoxy)piperidin-1-yl)-3-methyl-6,7-dihydro-5H-pyrrolo[3,4-b]pyridin-5-one] |
| 214 | Cc1cc2c(nc1N1CCC(Oc3ccncc3)CC1)CNC2=O [Example 77, 3-methyl-2-(4-(pyridin-4-yloxy)piperidin-1-yl)-6,7-dihydro-5H-pyrrolo[3,4-b]pyridin-5-one] |
| 33 | Cc1cccc(OC2CCN(c3nc4c(cc3C)C(=O)NC4)CC2)c1 [Example 78, 3-methyl-2-(4-(m-tolyloxy)piperidin-1-yl)-6,7-dihydro-5H-pyrrolo[3,4-b]pyridin-5-one] |
| 2280 | Cc1ccccc1OC1CCN(c2nc3c(cc2C)C(=O)NC3)CC1 [Example 79, 3-methyl-2-(4-(o-tolyloxy)piperidin-1-yl)-6,7-dihydro-5H-pyrrolo[3,4-b]pyridin-5-one] |
| 69 | Cc1cc2c(nc1N1CCC(Oc3ccc4ocnc4c3)CC1)CNC2=O [Example 80, 2-(4-(benzo[d]oxazol-5-yloxy)piperidin-1-yl)-3-methyl-6,7-dihydro-5H-pyrrolo[3,4-b]pyridin-5-one] |
| 37 | Cc1cc2c(nc1N1CCC(Oc3ccc(F)c(F)c3)CC1)CNC2=O [Example 81, 2-(4-(3,4-difluorophenoxy)piperi-din-1-yl)-3-methyl-6,7-dihydro-5H-pyrrolo[3,4-b]pyridin-5-one] |
| 121 | Cc1ccc(OC2CCN(c3nc4c(cc3C)C(=O)NC4)CC2)cc1Cl [Example 82, 2-(4-(3-chloro-4-methylphenoxy)piperidin-1-yl)-3-methyl-6,7-dihydro-5H-pyrrolo[3,4-b]pyridin-5-one] |
